{"source": "patent US12121514B2", "about": "“Nonselective metabotropic glutamate receptor activators for treatment of attention deficit disorder and 22Q syndrome” (THE CHILDREN'S HOSPITAL OF PHILADELPHIA, priority 2015, dated 2024)", "tested_on": "adolescent subjects with ADHD and at least one genetic alteration in an mGluR network gene", "assay": "Vanderbilt ADHD score (items 1-18, parent), Phase Ib trial of NFC-1", "format": "in vivo, human", "text": "The Vanderbilt Rating Scale is a measure that can be completed by parents or teachers (separate forms, see Vanderbilt Rating Scale Parents and Vanderbilt Rating Scale Teachers). The Vanderbilt scale rates the child's behavior on items such as attention, finishing tasks, hyperactivity, difficulty waiting, and measures of conduct or oppositional defiant disorders—as well as measures of overall school performance and interactions with others. The first 18 items on the Vanderbilt scale correspond to those of the ADHD Rating Scale IV above while the Vanderbilt scale also includes items 19-47 related to other mental disorders including ODD (items 19-26), conduct disorder (items 27-40), anxiety (items 41, 42, and 47), and depression (items 43-46). Each of the behavioral assessment items on the Vanderbilt Scale are rated 0, 1, 2, or 3, with 0=never occurring; 1=occasionally, 2=often, and 3=very often. Thus, the ADHD Rating Scale IV, ADHD Rating Scale V, and items 1-18 of the Vanderbilt Rating Scale are equivalent scales, while additional items on the Vanderbilt Scale assess co-morbid phenotypes and disorders.\nEach of the items are rated on a scale of 0, 1, 2, or 3, with 0=never; 1=occasionally, 2=often, and 3=very often. A total score of 0 to 54 is computed based on the answers to the 18 questions.\nAs used herein an “ADHD rating scale score,” “ADHD score” or “Vanderbilt ADHD score” are used interchangeably to refer to the computed score of the 18 items of the ADHD Rating Scale IV or V or the first 18 items of the Vanderbilt Rating Scale in any of their associated versions, e.g., for parent, teacher, or clinician to complete, and for a pediatric subject or adult subject. Clinical trials may assess the impact of drug or placebo on the ADHD score or Vanderbilt ADHD score (i.e. the score of 0 to 54 based on the first 18 items in the ADHD or Vanderbilt rating scale). In some cases, results of a clinical trial population may be analyzed by comparing the average score or a percentage change in score over time of administration of drug.\nAn open-label Phase Ib clinical trial was initiated to investigate the safety, pharmacokinetics and efficacy of NFC-1 (fasoracetam monohydrate) in adolescent subjects between the ages of 12 and 17 previously diagnosed with ADHD who also had at least one genetic alteration in an mGluR network gene.\nDose-escalation phase of the trial followed the PK and initial safety assessment and ran over a 5-week period. During week 1, all subjects were administered placebo capsules twice daily. After one week of placebo treatment, patients were started on 50 mg bid NFC-1 for 1 week. If safety and responsiveness data from prior dose level of fasoracetam indicated it was appropriate, subjects were then escalated to the next higher dose (100, 200, or 400 mg). […] Of the 30 trial subjects, 3 received a maximum dose of 100 mg, 9 received a maximum dose of 200 mg, and the remaining 18 received a maximum dose of 400 mg.\nAll efficacy assessments, except actigraphy, were made at study enrollment (“enrollment baseline”) and again, including actigraphy, once-per-week for the placebo week (“week 1” or “placebo baseline”) and at each of the 4 weeks of NFC-1 treatment. These efficacy measures include items 1-18 of the Vanderbilt scale assessing symptoms related to inattentiveness and hyperactivity-impulsiveness as well as additional questions 19-47 of the Vanderbilt scale assessing other behavioral symptoms (conducted by parent), actigraphy for quantitative measurement of activity, Quotient® ADHD test for objective measurement of micro-motion and shifts in attention state, PERMP-Math test, and CGI-I and CGI-S for assessment of global functioning. […]", "key": {"[1]": {"conditions": "relative to placebo (week 1) baseline, Tier 3, Week 3, up to 100 mg bid"}, "[2]": {"conditions": "relative to placebo (week 1) baseline, Tier 3, Week 4, 200 mg bid"}, "[3]": {"conditions": "relative to placebo (week 1) baseline, Tier 3, Week 4, up to 200 mg bid"}, "[4]": {"conditions": "relative to placebo (week 1) baseline, Tier 3, Week 5, 400 mg bid"}, "[5]": {"conditions": "relative to placebo (week 1) baseline, Tier 3, Week 5, up to 400 mg bid"}, "[6]": {"conditions": "relative to pre-study (enrollment) baseline, Overall, Week 2, 50 mg bid"}, "[7]": {"conditions": "relative to pre-study (enrollment) baseline, Overall, Week 3, 100 mg bid"}, "[8]": {"conditions": "relative to pre-study (enrollment) baseline, Overall, Week 3, up to 100 mg bid"}, "[9]": {"conditions": "relative to pre-study (enrollment) baseline, Overall, Week 4, 200 mg bid"}, "[10]": {"conditions": "relative to pre-study (enrollment) baseline, Overall, Week 4, up to 200 mg bid"}, "[11]": {"conditions": "relative to pre-study (enrollment) baseline, Overall, Week 5, 400 mg bid"}, "[12]": {"conditions": "relative to pre-study (enrollment) baseline, Tier 1, Week 2, 50 mg bid"}, "[13]": {"conditions": "relative to pre-study (enrollment) baseline, Tier 1, Week 3, 100 mg bid"}, "[14]": {"conditions": "relative to pre-study (enrollment) baseline, Tier 1, Week 3, up to 100 mg bid"}, "[15]": {"conditions": "relative to pre-study (enrollment) baseline, Tier 1, Week 4, 200 mg bid"}}, "note": "Values joined by “and” are separate entries in the source; they are usually repeats but may differ in a detail not shown here. Equal entries are not always repeated."}
{"smiles": "O=C1CC[C@H](C(=O)N2CCCCC2)N1", "note": "[NFC-1, fasoracetam monohydrate]", "values": [{"measurement": "Percent of subjects demonstrating robust improvement in Vanderbilt ADHD score (at least 40% decrease)", "setting": "[1]", "value": 0, "unit": "%"}, {"measurement": "Percent of subjects with improvement in Vanderbilt ADHD score (at least 25% decrease)", "setting": "[1]", "value": 20, "unit": "%"}, {"measurement": "Percent of subjects completing the dose escalation to 400 mg bid that show improvement in Vanderbilt ADHD scores (at least 25% decrease)", "setting": "[2]", "value": 0, "unit": "%"}, {"measurement": "Percent of subjects completing the dose escalation to 400 mg bid that show robust improvement in Vanderbilt ADHD scores (at least 40% decrease)", "setting": "[2]", "value": 0, "unit": "%"}, {"measurement": "Percent of subjects demonstrating robust improvement in Vanderbilt ADHD score (at least 40% decrease)", "setting": "[3]", "value": 0, "unit": "%"}, {"measurement": "Percent of subjects with improvement in Vanderbilt ADHD score (at least 25% decrease)", "setting": "[3]", "value": 0, "unit": "%"}, {"measurement": "Percent of subjects completing the dose escalation to 400 mg bid that show improvement in Vanderbilt ADHD scores (at least 25% decrease)", "setting": "[4]", "value": 0, "unit": "%"}, {"measurement": "Percent of subjects completing the dose escalation to 400 mg bid that show robust improvement in Vanderbilt ADHD scores (at least 40% decrease)", "setting": "[4]", "value": 0, "unit": "%"}, {"measurement": "Percent of subjects demonstrating robust improvement in Vanderbilt ADHD score (at least 40% decrease)", "setting": "[5]", "value": 0, "unit": "%"}, {"measurement": "Percent of subjects with improvement in Vanderbilt ADHD score (at least 25% decrease)", "setting": "[5]", "value": 0, "unit": "%"}, {"measurement": "Percent of subjects completing the dose escalation to 400 mg bid that show improvement in Vanderbilt ADHD scores (at least 25% decrease)", "setting": "[6]", "value": 41, "unit": "%"}, {"measurement": "Percent of subjects completing the dose escalation to 400 mg bid that show robust improvement in Vanderbilt ADHD scores (at least 40% decrease)", "setting": "[6]", "value": 35, "unit": "%"}, {"measurement": "Percent of subjects demonstrating robust improvement in Vanderbilt ADHD score (at least 40% decrease)", "setting": "[6]", "value": 32, "unit": "%"}, {"measurement": "Percent of subjects with improvement in Vanderbilt ADHD score (at least 25% decrease)", "setting": "[6]", "value": 43, "unit": "%"}, {"measurement": "Percent of subjects completing the dose escalation to 400 mg bid that show improvement in Vanderbilt ADHD scores (at least 25% decrease)", "setting": "[7]", "value": 53, "unit": "%"}, {"measurement": "Percent of subjects completing the dose escalation to 400 mg bid that show robust improvement in Vanderbilt ADHD scores (at least 40% decrease)", "setting": "[7]", "value": 24, "unit": "%"}, {"measurement": "Percent of subjects demonstrating robust improvement in Vanderbilt ADHD score (at least 40% decrease)", "setting": "[8]", "value": 36, "unit": "%"}, {"measurement": "Percent of subjects with improvement in Vanderbilt ADHD score (at least 25% decrease)", "setting": "[8]", "value": 54, "unit": "%"}, {"measurement": "Percent of subjects completing the dose escalation to 400 mg bid that show improvement in Vanderbilt ADHD scores (at least 25% decrease)", "setting": "[9]", "value": 53, "unit": "%"}, {"measurement": "Percent of subjects completing the dose escalation to 400 mg bid that show robust improvement in Vanderbilt ADHD scores (at least 40% decrease)", "setting": "[9]", "value": 35, "unit": "%"}, {"measurement": "Percent of subjects demonstrating robust improvement in Vanderbilt ADHD score (at least 40% decrease)", "setting": "[10]", "value": 43, "unit": "%"}, {"measurement": "Percent of subjects with improvement in Vanderbilt ADHD score (at least 25% decrease)", "setting": "[10]", "value": 68, "unit": "%"}, {"measurement": "Percent of subjects completing the dose escalation to 400 mg bid that show improvement in Vanderbilt ADHD scores (at least 25% decrease)", "setting": "[11]", "value": 82, "unit": "%"}, {"measurement": "Percent of subjects completing the dose escalation to 400 mg bid that show robust improvement in Vanderbilt ADHD scores (at least 40% decrease)", "setting": "[11]", "value": 47, "unit": "%"}, {"measurement": "Percent of subjects with improvement in Vanderbilt ADHD score (at least 25% decrease)", "setting": "relative to pre-study (enrollment) baseline, Overall, Week 5, up to 400 mg bid, monohydrate", "value": "78% and 75-80%"}, {"measurement": "Percent of subjects completing the dose escalation to 400 mg bid that show improvement in Vanderbilt ADHD scores (at least 25% decrease)", "setting": "[12]", "value": 56, "unit": "%"}, {"measurement": "Percent of subjects completing the dose escalation to 400 mg bid that show robust improvement in Vanderbilt ADHD scores (at least 40% decrease)", "setting": "[12]", "value": 44, "unit": "%"}, {"measurement": "Percent of subjects demonstrating robust improvement in Vanderbilt ADHD score (at least 40% decrease)", "setting": "[12]", "value": 35, "unit": "%"}, {"measurement": "Percent of subjects with improvement in Vanderbilt ADHD score (at least 25% decrease)", "setting": "[12]", "value": 47, "unit": "%"}, {"measurement": "Percent of subjects completing the dose escalation to 400 mg bid that show improvement in Vanderbilt ADHD scores (at least 25% decrease)", "setting": "[13]", "value": 89, "unit": "%"}, {"measurement": "Percent of subjects completing the dose escalation to 400 mg bid that show robust improvement in Vanderbilt ADHD scores (at least 40% decrease)", "setting": "[13]", "value": 44, "unit": "%"}, {"measurement": "Percent of subjects demonstrating robust improvement in Vanderbilt ADHD score (at least 40% decrease)", "setting": "[14]", "value": 50, "unit": "%"}, {"measurement": "Percent of subjects with improvement in Vanderbilt ADHD score (at least 25% decrease)", "setting": "[14]", "value": 75, "unit": "%"}, {"measurement": "Percent of subjects completing the dose escalation to 400 mg bid that show improvement in Vanderbilt ADHD scores (at least 25% decrease)", "setting": "[15]", "value": 89, "unit": "%"}, {"measurement": "Percent of subjects completing the dose escalation to 400 mg bid that show robust improvement in Vanderbilt ADHD scores (at least 40% decrease)", "setting": "[15]", "value": 56, "unit": "%"}, {"measurement": "Percent of subjects demonstrating robust improvement in Vanderbilt ADHD score (at least 40% decrease)", "setting": "relative to pre-study (enrollment) baseline, Tier 1, Week 4, up to 200 mg bid", "value": 56, "unit": "%"}]}
